Assay results reported in patent publication US20010021394A1, “Induction of a cellular stress response with heavy metal salts” (priority 1996, published 2001).

What was measured:
[1] = system: warm renal ischemia; assay: Warm ischemic injury of the rat kidney (renal vascular resistance); type: in vivo, Male Sprague-Dawley rats; details: following 60 minutes of warm ischemic injury, recorded as mm mercury/ml fluid/gram of tissue, control approximately 60, uninjured 43-44
Procedure: Male Sprague-Dawley rats were stress conditioned and subjected to warm ischemic injury using methods similar to those previously described in Perdrizet et al., supra. The non-treated control animals underwent 60 minutes of occlusion of the renal artery at 35-37° C. as an ischemic insult. Following the ischemic injury, flow was reestablished in the kidney and vascular resistance of the kidney was measured. To measure renal vascular resistance, a syringe system was attached to the renal artery, to give a constant flow rate of approximately 0.5 cc/minute. Since there was a constant flow rate, it was possible to measure the pressure generated in the syringe. The higher the pressure, the greater the resistance. Renal vascular resistance was recorded as mm mercury/ml fluid/gram of tissue.

[2] = system: spinal cord ischemia; assay: Acute spinal cord ischemia in the rabbit (aortic occlusion, neurologic function after reperfusion); type: in vivo, New Zealand white rabbits; details: 0.15 mg per kilogram subcutaneous, sixteen hours prior to 20 minutes aortic occlusion at 37° C., evaluated 24 hours after reperfusion, four animals
From the text: New Zealand white rabbits were stress conditioned and subjected to spinal cord ischemia using methods similar to those previously described in Perdrizet et al., “Stress conditioning: A novel approach to organ preservation”, Current Surgery, 46(1): 23-26 (January-February 1989), the contents of which are incorporated herein by reference in their entirety. The rabbits were subjected to spinal cord ischemia by occlusion of the infrarenal-abdominal aorta as an ischemic insult to the spinal cord, for 20 minutes at 37° C. The occlusion was then removed and blood flow re-established to the infra-renal aorta. Neurological function of the lower extremities was evaluated 24 hours after reperfusion. Four animals were pretreated with a subcutaneous injection in the rump region of stannous chloride (SnCl2) in a saline diluent at a dose of 0.15 mg per kilogram (0.00066 millimoles per kilogram), sixteen hours prior to aortic occlusion.

## [Cl][Sn][Cl] [SnCl2, stannous chloride]
[1]
  Renal vascular resistance: 45 resistance units
[2]
  Neurological function of the lower extremities: all four animals pretreated with SnCl2 had normal neurologic function
